Measured values reported in patent US20260070945A1, “MACROCYCLIC IMMUNOMODULATORS” (Bristol-Myers Squibb Company, priority 2022, published 2026).
*1 amine or outer side, *2 acyl side, *3 side chain or, on linkers, in order; H or OH if unused. Where a SMILES comes first, the peptide text is derived from it. Bridges are numbered along the chain shown (N, C = ends). [ ]: non-standard residue; d: D form. The star is where a group is joined. Phe(3-CF3) = N[C@@H](Cc1cccc(C(F)(F)F)c1)C(=O)O; Phe(4-COOH) = N[C@@H](Cc1ccc(C(=O)O)cc1)C(=O)O; Bip = N[C@@H](Cc1ccc(-c2ccccc2)cc1)C(=O)O; Phe(3-Me) = Cc1cccc(C[C@H](N)C(=O)O)c1; Phe(4-F) = N[C@@H](Cc1ccc(F)cc1)C(=O)O; Phe(4-Me) = Cc1ccc(C[C@H](N)C(=O)O)cc1; γGlu = O=C(O)[C@H](CCC(=O)[*:2])N[*:1]; βAsp = O=C(O)[C@H](CC(=O)[*:2])N[*:1]; NH(CH2)12COOH = O=C(O)CCCCCCCCCCCCN*; His(π-Me) = Cn1cncc1C[C@H](N)C(=O)O; Val(3-OH) = CC(C)(O)[C@H](N)C(=O)O; mTyr = N[C@@H](Cc1cccc(O)c1)C(=O)O; aIle = CC[C@@H](C)[C@H](N)C(=O)O; hArg = N=C(N)NCCCC[C@H](N)C(=O)O; 4Pal = N[C@@H](Cc1ccncc1)C(=O)O; Cha = N[C@@H](CC1CCCCC1)C(=O)O; Carboxymethyl = O=C(O)C*; NMeA = CN[C@@H](C)C(=O)O; Orn = NCCC[C@H](N)C(=O)O; Aun = NCCCCCCCCCCC(=O)O; Dab = NCC[C@H](N)C(=O)O; Dap = NC[C@H](N)C(=O)O; AEEA = NCCOCCOCC(=O)O

biological target: T1, PD-1/PD-L1 interaction (PE-labeled human PD-L1-Ig binding to Jurkat cell line over-expressing human PD-1) (Homo sapiens, UniProt Q15116); experiment: Jurkat-PD-1 Cell Binding High-Content Screening Assay (CBA); conditions: Jurkat-hPD-1 cells, PE-labeled PD-L1-Ig 20 nM final; read-out: Jurkat HPD1 PDL1 IC50
T1 construct: expressed in transfected cells; host or cells: Jurkat
Summary of the method: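 Binding of 20 nM (final) PE-tagged PD-L1-Ig to compound-pretreated Jurkat-hPD-1 cells was measured by high-content imaging after 1 h. Pretreatment ran 2 h at 37 °C in DMEM with 10% fetal calf serum.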

T1 sequence (Q15116 25-288): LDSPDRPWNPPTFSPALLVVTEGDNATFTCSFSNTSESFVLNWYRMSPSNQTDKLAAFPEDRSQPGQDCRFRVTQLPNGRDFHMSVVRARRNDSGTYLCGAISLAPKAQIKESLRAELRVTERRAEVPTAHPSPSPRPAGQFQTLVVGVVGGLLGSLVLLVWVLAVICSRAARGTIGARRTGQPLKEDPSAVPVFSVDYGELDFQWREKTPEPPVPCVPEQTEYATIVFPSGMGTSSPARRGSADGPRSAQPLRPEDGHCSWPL

SMILES | IC50
CC(C)C[C@@H]1NC(=O)[C@H](Cc2c[nH]c3ccccc23)NC(=O)[C@H](CC(=O)O)NC(=O)[C@H](Cc2ccc(C(=O)O)cc2)NC(=O)[C@H](Cc2ccc(OCC(=O)O)cc2)NC(=O)CSC[C@@H](C(=O)N[C@@H](CCCN)C(=O)NCCOCCOCC(=O)NCCCCCCCCCCC(=O)O)NC(=O)[C@H](CCCCN)NC(=O)[C@H](C(C)C)NC(=O)[C@H](CC2CCCCC2)NC(=O)[C@H](CC(=O)O)NC(=O)[C@@H](CC(C)C)NC(=O)[C@H](C)N(C)C(=O)[C@H](C(C)C)NC(=O)[C@H](Cc2ccc(-c3ccccc3)cc2)NC1=O [Example 2136] ({CH2CO}-Y(Carboxymethyl)[Phe(4-COOH)]DWL[Bip]V[NMeA][dL]D[Cha]VKC[Orn][AEEA][Aun]-OH; thioether N-14) | 143 nM
CC(C)[C@@H]1NC(=O)[C@H](CC2CCCCC2)NC(=O)[C@H](CCN)NC(=O)[C@@H](C)NC(=O)[C@H](C)N(C)C(=O)[C@H](Cc2ccc(O)cc2)NC(=O)[C@H](Cc2ccc(-c3ccccc3)cc2)NC(=O)[C@H](Cc2ccc(O)cc2)NC(=O)[C@H](Cc2cccc(O)c2)NC(=O)[C@H](CC(=O)O)NC(=O)[C@H](Cc2ccc(OCC(=O)O)cc2)NC(=O)[C@H](CN)NC(=O)CSC[C@@H](C(=O)N[C@@H](CCN)C(=O)NCCCCCCCCCCC(=O)O)NC(=O)[C@H](CCCN)NC1=O [Example 1256] ({CH2CO}-[Dap]Y(Carboxymethyl)D[mTyr]Y[Bip]Y[NMeA][dA][Dab][Cha]V[Orn]C[Dab][Aun]-OH; thioether N-14) | 502 nM
CC(C)C[C@H]1NC(=O)[C@H](C)N(C)C(=O)[C@H](Cc2ccc(OCC(=O)O)cc2)NC(=O)[C@H](Cc2ccc(-c3ccccc3)cc2)NC(=O)[C@H](Cc2ccc(OCC(=O)O)cc2)NC(=O)[C@H](Cc2c[nH]c3ccccc23)NC(=O)[C@H](CC(=O)O)NC(=O)[C@H](Cc2ccncc2)NC(=O)[C@H](Cc2ccc(OCC(=O)O)cc2)NC(=O)CSC[C@@H](C(=O)N[C@@H](CCCN)C(=O)NCCOCCOCC(=O)NCCCCCCCCCCC(=O)O)NC(=O)[C@H]([C@@H](C)O)NC(=O)[C@H](C(C)C)NC(=O)[C@H](CC2CCCCC2)NC(=O)[C@H](CCN)NC1=O [Example 1382] ({CH2CO}-Y(Carboxymethyl)[4Pal]DWY(Carboxymethyl)[Bip]Y(Carboxymethyl)[NMeA][dL][Dab][Cha]VTC[Orn][AEEA][Aun]-OH; thioether N-14) | 110 nM
CC(C)C[C@H]1NC(=O)[C@H](C)N(C)C(=O)[C@H](Cc2ccc(O)cc2)NC(=O)[C@H](Cc2ccc(-c3ccccc3)cc2)NC(=O)[C@H](C(C)C)NC(=O)[C@H](Cc2c[nH]c3ccccc23)NC(=O)[C@H](CC(=O)O)NC(=O)[C@H](Cc2ccc(OCC(=O)O)cc2)NC(=O)[C@H](Cc2ccncc2)NC(=O)CSC[C@@H](C(=O)N[C@@H](CCN)C(=O)NCCCCCCCCCCC(=O)O)NC(=O)[C@H]([C@@H](C)O)NC(=O)[C@H](C(C)C)NC(=O)[C@H](CC2CCCCC2)NC(=O)[C@H](CCN)NC1=O [Example 1324] ({CH2CO}-[4Pal]Y(Carboxymethyl)DWV[Bip]Y[NMeA][dL][Dab][Cha]VTC[Dab][Aun]-OH; thioether N-14) | 34.2 nM

Now from value to molecule:

IC50 | SMILES
26.9 nM | Cc1ccc(C[C@@H]2NC(=O)[C@H](Cc3cccc(C)c3)NC(=O)[C@H](CC(=O)O)NC(=O)[C@H](Cc3ccc(C(=O)O)cc3)NC(=O)[C@H](CCN)NC(=O)CSC[C@@H](C(=O)N[C@@H](CCN)C(=O)NCCCCCCCCCCC(=O)O)NC(=O)[C@H](CO)NC(=O)[C@H](C(C)(C)O)NC(=O)[C@H](CC3CCCCC3)NC(=O)[C@H](CCN)NC(=O)[C@@H](CC(C)C)NC(=O)[C@H](C)N(C)C(=O)[C@H](Cc3ccc(OCC(=O)O)cc3)NC(=O)[C@H](Cc3ccc(-c4ccccc4)cc3)NC2=O)cc1 [Example 1301] ({CH2CO}-[Dab][Phe(4-COOH)]D[Phe(3-Me)][Phe(4-Me)][Bip]Y(Carboxymethyl)[NMeA][dL][Dab][Cha][Val(3-OH)]SC[Dab][Aun]-OH; thioether N-14)
24.3 nM | CC[C@@H](C)[C@@H]1NC(=O)[C@H](Cc2ccc(-c3ccccc3)cc2)NC(=O)[C@H](C(C)C)NC(=O)[C@H](Cc2c[nH]c3ccccc23)NC(=O)[C@H](CC(=O)O)NC(=O)[C@H](Cc2ccc(OCC(=O)O)cc2)NC(=O)[C@H](Cc2ccncc2)NC(=O)CSC[C@@H](C(=O)N[C@H](CC(N)=O)C(=O)NCCOCCOCC(=O)N[C@@H](CCC(=O)NCCOCCOCC(=O)N[C@@H](CCC(=O)NCCOCCOCC(=O)N[C@@H](CCCN)C(=O)NCCCCCCCCCCC(=O)O)C(=O)O)C(=O)O)NC(=O)[C@H](CO)NC(=O)[C@H](C(C)C)NC(=O)[C@H](CC2CCCCC2)NC(=O)[C@H](CC(N)=O)NC(=O)[C@@H](CC(C)C)NC(=O)[C@H](C)N(C)C1=O [Example 2017] ({CH2CO}-[4Pal]Y(Carboxymethyl)DWV[Bip][aIle][NMeA][dL]N[Cha]VSC[dN][AEEA][γGlu][AEEA][γGlu][AEEA][Orn][Aun]-OH; thioether N-14)
22.1 nM | Cc1cccc(C[C@@H]2NC(=O)[C@H](CC(=O)O)NC(=O)[C@H](Cc3ccc(OCC(=O)O)cc3)NC(=O)[C@H](Cc3cncn3C)NC(=O)CSC[C@@H](C(=O)N[C@@H](CCN)C(=O)NCCCCCCCCCCC(=O)O)NC(=O)[C@H](CO)NC(=O)[C@H](C(C)C)NC(=O)[C@H](CC3CCCCC3)NC(=O)[C@H](CCN)NC(=O)[C@@H](CC(C)C)NC(=O)[C@H](C)N(C)C(=O)[C@H](Cc3ccc(O)cc3)NC(=O)[C@H](Cc3ccc(-c4ccccc4)cc3)NC(=O)[C@H](Cc3ccc(OCC(=O)O)cc3)NC2=O)c1 [Example 1281] ({CH2CO}-[His(π-Me)]Y(Carboxymethyl)D[Phe(3-Me)]Y(Carboxymethyl)[Bip]Y[NMeA][dL][Dab][Cha]VSC[Dab][Aun]-OH; thioether N-14)
21 nM | CC(C)C[C@@H]1NC(=O)[C@H](Cc2c[nH]c3ccccc23)NC(=O)[C@H](CC(=O)O)NC(=O)[C@H](Cc2ccc(OCC(=O)O)cc2)NC(=O)[C@H](CCCCNC(=N)N)NC(=O)CSC[C@@H](C(=O)N[C@@H](CC(N)=O)C(=O)NCCOCCOCC(=O)N[C@@H](CC(=O)NCCCCCCCCCCC(=O)O)C(=O)O)NC(=O)[C@H](CO)NC(=O)[C@H](C(C)C)NC(=O)[C@H](CC(C)C)NC(=O)[C@H](CC(N)=O)NC(=O)[C@@H](CC(C)C)NC(=O)[C@H](C)N(C)C(=O)[C@H](C(C)C)NC(=O)[C@H](Cc2ccc(-c3ccccc3)cc2)NC1=O [Example 2012] ({CH2CO}-[hArg]Y(Carboxymethyl)DWL[Bip]V[NMeA][dL]NLVSCN[AEEA][βAsp][Aun]-OH; thioether N-14)
12 nM | Cc1cccc(C[C@@H]2NC(=O)[C@H](CC(=O)O)NC(=O)[C@H](Cc3ccc(OCC(=O)O)cc3)NC(=O)[C@H]([C@@H](C)O)NC(=O)CSC[C@@H](C(=O)N[C@@H](CCN)C(=O)NCCOCCOCC(=O)NCCCCCCCCCCC(=O)O)NC(=O)[C@H](CCC(=O)O)NC(=O)[C@H](C(C)C)NC(=O)[C@H](CC3CCCCC3)NC(=O)[C@H](CCN)NC(=O)[C@@H](CC(C)C)NC(=O)[C@H](C)N(C)C(=O)[C@H](Cc3ccc(OCC(=O)O)cc3)NC(=O)[C@H](Cc3ccc(-c4ccccc4)cc3)NC(=O)[C@H](Cc3ccc(OCC(=O)O)cc3)NC2=O)c1 [Example 1369] ({CH2CO}-TY(Carboxymethyl)D[Phe(3-Me)]Y(Carboxymethyl)[Bip]Y(Carboxymethyl)[NMeA][dL][Dab][Cha]VEC[Dab][AEEA][Aun]-OH; thioether N-14)

same assay, conditions: PE-labeled PD-L1-Ig 20 nM final, Jurkat-hPD-1 cells; read-out: Jurkat HPD1 PDL1 IC50

IC50 | SMILES
39.7 nM | CC(=O)NCCCC[C@@H]1NC(=O)[C@H](C(C)(C)O)NC(=O)[C@H](CC2CCCCC2)NC(=O)[C@H](CCN)NC(=O)[C@@H](CC(C)C)NC(=O)[C@H](C)N(C)C(=O)[C@H](CCC(=O)O)NC(=O)[C@H](Cc2ccc(-c3ccccc3)cc2)NC(=O)[C@H](Cc2ccc(C(=O)O)cc2)NC(=O)[C@H](Cc2cccc(C(F)(F)F)c2)NC(=O)[C@H](CC(=O)O)NC(=O)[C@H](Cc2ccc(OCC(=O)O)cc2)NC(=O)[C@H](Cc2ccc(OCC(=O)O)cc2)NC(=O)CSC[C@@H](C(=O)N[C@@H](CCN)C(=O)NCCOCCOCC(=O)NCCCCCCCCCCCCC(=O)O)NC1=O [Example 2640] ({CH2CO}-Y(Carboxymethyl)Y(Carboxymethyl)D[Phe(3-CF3)][Phe(4-COOH)][Bip]E[NMeA][dL][Dab][Cha][Val(3-OH)]K(Ac)C[Dab][AEEA]-{NH(CH2)12COOH}; thioether N-14)
28.6 nM | Cc1cccc(C[C@@H]2NC(=O)[C@H](CC(=O)O)NC(=O)[C@H](Cc3ccc(OCC(=O)O)cc3)NC(=O)[C@H](Cc3ccc(F)cc3)NC(=O)CSC[C@@H](C(=O)N[C@@H](CCN)C(=O)NCCOCCOCC(=O)NCCCCCCCCCCC(=O)O)NC(=O)[C@H](CC(=O)O)NC(=O)[C@H](C(C)C)NC(=O)[C@H](CC3CCCCC3)NC(=O)[C@H](CCN)NC(=O)[C@@H](CC(C)C)NC(=O)[C@H](C)N(C)C(=O)[C@H](Cc3ccc(OCC(=O)O)cc3)NC(=O)[C@H](Cc3ccc(-c4ccccc4)cc3)NC(=O)[C@H](Cc3ccc(OCC(=O)O)cc3)NC2=O)c1 [Example 2559] ({CH2CO}-[Phe(4-F)]Y(Carboxymethyl)D[Phe(3-Me)]Y(Carboxymethyl)[Bip]Y(Carboxymethyl)[NMeA][dL][Dab][Cha]VDC[Dab][AEEA][Aun]-OH; thioether N-14)
2.4 nM | Cc1cccc(C[C@@H]2NC(=O)[C@H](CC(=O)O)NC(=O)[C@H](Cc3ccc(C(=O)O)cc3)NC(=O)[C@H](Cc3ccc(F)cc3)NC(=O)CSC[C@@H](C(=O)N[C@@H](CCN)C(=O)NCCOCCOCC(=O)NCCOCCOCC(=O)NCCCCCCCCCCC(=O)O)NC(=O)[C@H](CCC(=O)O)NC(=O)[C@H](C(C)C)NC(=O)[C@H](CC3CCCCC3)NC(=O)[C@H](CCN)NC(=O)[C@@H](CC(C)C)NC(=O)[C@H](C)N(C)C(=O)[C@H](Cc3ccc(C(=O)O)cc3)NC(=O)[C@H](Cc3ccc(-c4ccccc4)cc3)NC(=O)[C@H](Cc3ccc(C(=O)O)cc3)NC2=O)c1 [Example 2542] ({CH2CO}-[Phe(4-F)][Phe(4-COOH)]D[Phe(3-Me)][Phe(4-COOH)][Bip][Phe(4-COOH)][NMeA][dL][Dab][Cha]VEC[Dab][AEEA][AEEA][Aun]-OH; thioether N-14)
